The data set is described as follows: LC–MS/MS analysis of serum and urine samples of intoxication cases. It is filed as in vivo, human. The note with it: for Concentration in serum: patient serum; for Finding in urine: patient urine. As to the method: The data on intoxication cases used for the development of this risk score were obtained from a prospective study. This study included patients who were treated in an emergency department room following the consumption of an NPS. Clinical symptoms and follow‐up information were documented using a structured questionnaire completed by the attending physicians. The methodology has been previously published. Residual serum (obtained from venous blood) and urine samples, accompanied by the completed questionnaires, were sent to the Poisons Information Center Freiburg for further analysis. The toxicological analyses of serum and urine samples were conducted at the Institute of Forensic Medicine Freiburg. No data was available on previous consumption patterns or potential development of tolerance after continued misuse. The study was conducted in accordance with the Declaration of Helsinki and approved by the regional ethics committee of the University of Freiburg (no. 235/13_130683). The intoxication cases included in this study are those in which SCRA use was confirmed by liquid chromatography tandem mass spectrometry (LC–MS/MS).
Serum/blood and urine analyses were conducted at the Institute of Forensic Medicine Freiburg using previously published LC–MS/MS methods, that were modified by adding further analytes present in ‘legal‐high’ products (‘herbal blends’, ‘C‐liquids’ or ‘research chemicals’), and covered approximately 100 different SCRAs. Detailed information can be found in the Supporting Information.
Urine samples were analysed according to previously published and validated method by Franz et al.^2. For sample preparation 0.5 mL of phosphate buffer (pH 6) and 30 μL of β-glucuronidase were added to 0.5 mL of urine. Incubation was for 60 min at 45°C. This was followed by protein precipitation using 1.5 mL acetonitrile containing the internal standard (c = 2 ng/mL) and 0.56 mL 10 M ammonium formate solution, followed by shaking and centrifugation. 1 mL of the organic phase was transferred into an autosampler vial and evaporated to dryness under N2. The samples were reconstituted in 200 μL mobile phase.
Urine sample analysis was performed on a Dionex UltiMate® 3000RS UHPLC (Thermo Scientific, Dreieich, Germany) coupled to an API 5000^TM triple quadrupole instrument with a TurboIonSpray® interface (Sciex, Darmstadt, Germany). Separation was performed on a Luna C18 100 Å (150 x 2 mm, 5 μm) column with the mobile phase consisting of 0.2% HCOOH and 2 mmol/L NH^4+HCOO^− in water (A) and acetonitrile (B).

Molecules are shown by their SMILES.

Regarding `CC(C)C(NC(=O)c1nn(CC2CCCCC2)c2ccccc12)C(N)=O` (centres unmarked), the Concentration in serum by setting is: (intoxication case A (AB‐CHMINACA)) 9.5 ng/mL; (intoxication case B (AB‐CHMINACA)) 27 ng/mL; (intoxication case B (AB‐CHMINACA), listed as AB-CHMINACA) “ca. 27 ng/mL”. For the same compound, the Finding in urine result is recorded as “positive” (intoxication case A) and “positive” (intoxication case B).

Source of the values: article PMC12980303, “Development of a novel risk score reflecting the relative harm potential of synthetic cannabinoids based on prevalence estimates, well‐documented intoxication cases and basic pharmacological data” (Addiction (Abingdon, England), 2025).
